# Results taken from ChEMBL document CHEMBL1201862, “PubChem BioAssay data set” (2004).
#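 48-hour exposure; five concentrations; linearly interpolated endpoints. GI50 = concentration required for 50% inhibition of growth.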 Active and inactive are the calls of the source. Rule as the data show it: active = GI50 up to about 1.1 µM and inactive = higher.
# Key:
# Assay in all cases: DTP human tumour cell line panel, 48 h
# TK-10 = test system: TK-10
# OVCAR-8 = test system: OVCAR-8
# UACC-62 = test system: UACC-62
# A498 = test system: A498
# 786-0 = test system: 786-0
# MOLT-4 = test system: MOLT-4
# NCI-H226 = test system: NCI-H226
# OVCAR-3 = test system: OVCAR-3
# DU-145 = test system: DU-145
# SNB-19 = test system: SNB-19
# RXF 393 = test system: RXF 393
# RPMI-8226 = test system: RPMI-8226
# MDA-MB-231 = test system: MDA-MB-231
# SK-MEL-5 = test system: SK-MEL-5
# Hs-578T = test system: Hs-578T
# COLO 205 = test system: COLO 205
# EKVX = test system: EKVX
# SF-295 = test system: SF-295
# OVCAR-4 = test system: OVCAR-4
# HCC 2998 = test system: HCC 2998
Compound,GI50 (TK-10),GI50 (OVCAR-8),GI50 (UACC-62),GI50 (A498),GI50 (786-0),GI50 (MOLT-4),GI50 (NCI-H226),GI50 (OVCAR-3),GI50 (DU-145),GI50 (SNB-19),GI50 (RXF 393),GI50 (RPMI-8226),GI50 (MDA-MB-231),GI50 (SK-MEL-5),GI50 (Hs-578T),GI50 (COLO 205),GI50 (EKVX),GI50 (SF-295),GI50 (OVCAR-4),GI50 (HCC 2998)
CC(C)(C)C(=O)N(C(=S)OCc1ccccn1)c1ccccc1,> 100 µM (inactive),31.6 µM (inactive),63 µM (inactive),> 100 µM (inactive),35.8 µM (inactive),18.8 µM (inactive),67.8 µM (inactive),30.9 µM (inactive),38.6 µM (inactive),59.6 µM (inactive),18.2 µM (inactive),12.2 µM (inactive),31 µM (inactive),20 µM (inactive),39 µM (inactive),21.8 µM (inactive),15.5 µM (inactive),,,
N=C(CC(=O)NOC(=O)c1ccccc1)NOC(=O)c1ccccc1,52 µM (inactive),27.9 µM (inactive),25.9 µM (inactive),31.4 µM (inactive),> 100 µM (inactive),28.5 µM (inactive),12.8 µM (inactive),96.8 µM (inactive),> 100 µM (inactive),71.6 µM (inactive),10.8 µM (inactive),74.6 µM (inactive),> 100 µM (inactive),36.2 µM (inactive),36.2 µM (inactive),26.6 µM (inactive),30.9 µM (inactive),18.4 µM (inactive),18.3 µM (inactive),
COc1cc(CNc2ccc3nc4n(c(=O)c3c2)CCCCC4)cc(OC)c1OC,84.7 µM (inactive),> 100 µM (inactive),43.6 µM (inactive),50.6 µM (inactive),> 100 µM (inactive),32.7 µM (inactive),78.9 µM (inactive),39.8 µM (inactive),66.7 µM (inactive),,58.6 µM (inactive),72.3 µM (inactive),27.3 µM (inactive),22.3 µM (inactive),51.9 µM (inactive),35.9 µM (inactive),36.6 µM (inactive),47.9 µM (inactive),22.7 µM (inactive),
Cc1ccc2ccc(=O)oc2c1,> 100 µM (inactive),> 100 µM (inactive),74.5 µM (inactive),> 100 µM (inactive),> 100 µM (inactive),> 100 µM (inactive),> 100 µM (inactive),> 100 µM (inactive),> 100 µM (inactive),,> 100 µM (inactive),> 100 µM (inactive),> 100 µM (inactive),> 100 µM (inactive),> 100 µM (inactive),> 100 µM (inactive),> 100 µM (inactive),> 100 µM (inactive),> 100 µM (inactive),
CC(C)(C)c1cc(/C=C2/NC(=O)NC2=O)cc(C(C)(C)C)c1O,16.4 µM (inactive),16.3 µM (inactive),16.5 µM (inactive),14 µM (inactive),15.6 µM (inactive),17.1 µM (inactive),14.8 µM (inactive),14.2 µM (inactive),15.6 µM (inactive),,6.25 µM (inactive),11.4 µM (inactive),12.6 µM (inactive),13.7 µM (inactive),15.2 µM (inactive),14.4 µM (inactive),10.9 µM (inactive),14.8 µM (inactive),11.4 µM (inactive),
Fc1ccccc1CN1COc2c(cc(Cl)c3cccnc23)C1,3.09 µM (inactive),1.53 µM (inactive),0.427 µM (active),,2.65 µM (inactive),0.239 µM (active),0.624 µM (active),3.75 µM (inactive),2.62 µM (inactive),2.24 µM (inactive),13.9 µM (inactive),< 0.01 µM (active),0.422 µM (active),0.713 µM (active),3.15 µM (inactive),14.2 µM (inactive),0.378 µM (active),0.726 µM (active),0.596 µM (active),
OC(c1ccc2c(c1)OCO2)c1ccc2c(c1)OCO2,> 100 µM (inactive),> 100 µM (inactive),> 100 µM (inactive),54 µM (inactive),> 100 µM (inactive),> 100 µM (inactive),> 100 µM (inactive),> 100 µM (inactive),> 100 µM (inactive),> 100 µM (inactive),,> 100 µM (inactive),> 100 µM (inactive),> 100 µM (inactive),> 100 µM (inactive),> 100 µM (inactive),> 100 µM (inactive),> 100 µM (inactive),> 100 µM (inactive),> 100 µM (inactive)
N#CCc1nc(-c2ccccc2)n[nH]1,> 100 µM (inactive),> 100 µM (inactive),> 100 µM (inactive),,> 100 µM (inactive),> 100 µM (inactive),,> 100 µM (inactive),> 100 µM (inactive),74 µM (inactive),> 100 µM (inactive),,> 100 µM (inactive),> 100 µM (inactive),77.4 µM (inactive),> 100 µM (inactive),83.6 µM (inactive),> 100 µM (inactive),> 100 µM (inactive),> 100 µM (inactive)
c1ccc2c(c1)OC(N1CCCC1)c1cnc(N3CCOCC3)nc1-2 (stereo not given),29.9 µM (inactive),> 100 µM (inactive),43.1 µM (inactive),18.7 µM (inactive),59.8 µM (inactive),32.9 µM (inactive),30.6 µM (inactive),34.5 µM (inactive),66.8 µM (inactive),53 µM (inactive),21.7 µM (inactive),25.7 µM (inactive),45.1 µM (inactive),,51.1 µM (inactive),51.2 µM (inactive),21.6 µM (inactive),30.4 µM (inactive),41.6 µM (inactive),
CN(C(=O)Cc1ccccc1)n1cn[n+](CC(=O)OC(C)(C)C)c1,> 10 µM (inactive),> 10 µM (inactive),> 10 µM (inactive),> 10 µM (inactive),> 10 µM (inactive),> 10 µM (inactive),> 10 µM (inactive),> 10 µM (inactive),> 10 µM (inactive),> 10 µM (inactive),,0.00119 µM (active),> 10 µM (inactive),> 10 µM (inactive),> 10 µM (inactive),> 10 µM (inactive),> 10 µM (inactive),> 10 µM (inactive),> 10 µM (inactive),> 10 µM (inactive)
CC12ON(P(=O)(c3ccccc3)c3ccccc3)C(C)(c3ccccc31)c1ccccc12,> 100 µM (inactive),> 100 µM (inactive),> 100 µM (inactive),,> 100 µM (inactive),32.7 µM (inactive),> 100 µM (inactive),> 100 µM (inactive),> 100 µM (inactive),> 100 µM (inactive),81.7 µM (inactive),58.9 µM (inactive),> 100 µM (inactive),> 100 µM (inactive),> 100 µM (inactive),> 100 µM (inactive),> 100 µM (inactive),> 100 µM (inactive),21.5 µM (inactive),> 100 µM (inactive)
C=CC1(c2ccc3ccccc3c2)OCC(CC)(CC)CO1,37.5 µM (inactive),48.3 µM (inactive),24.8 µM (inactive),,20.2 µM (inactive),18.2 µM (inactive),16.4 µM (inactive),25.2 µM (inactive),45.1 µM (inactive),17.3 µM (inactive),20 µM (inactive),57.7 µM (inactive),15.8 µM (inactive),18.5 µM (inactive),18.7 µM (inactive),16.3 µM (inactive),,25.8 µM (inactive),41 µM (inactive),20.9 µM (inactive)
Clc1cccc(/C=c2\nc(-c3ccccc3)n3c2nc2ccccc23)c1,87.1 µM (inactive),> 100 µM (inactive),21.5 µM (inactive),> 100 µM (inactive),> 100 µM (inactive),> 100 µM (inactive),> 100 µM (inactive),> 100 µM (inactive),> 100 µM (inactive),> 100 µM (inactive),31.9 µM (inactive),> 100 µM (inactive),42.7 µM (inactive),> 100 µM (inactive),98.6 µM (inactive),> 100 µM (inactive),28.5 µM (inactive),73.3 µM (inactive),> 100 µM (inactive),
CCOC(=O)c1sc2c(c1O)c(=O)n(-c1ccccc1)c(=S)n2-c1ccccc1,> 100 µM (inactive),54.7 µM (inactive),84.3 µM (inactive),,> 100 µM (inactive),,> 100 µM (inactive),51.1 µM (inactive),71.8 µM (inactive),> 100 µM (inactive),> 100 µM (inactive),28.2 µM (inactive),> 100 µM (inactive),> 100 µM (inactive),> 100 µM (inactive),> 100 µM (inactive),,35.5 µM (inactive),> 100 µM (inactive),> 100 µM (inactive)
COc1cccc(/C=N/C(/N=C/c2cccc(OC)c2O)c2cccc(OC)c2O)c1O,15.7 µM (inactive),12.6 µM (inactive),24.2 µM (inactive),,23.3 µM (inactive),,,11.7 µM (inactive),18.4 µM (inactive),22.6 µM (inactive),8.39 µM (inactive),22 µM (inactive),25.1 µM (inactive),15 µM (inactive),17.6 µM (inactive),32.1 µM (inactive),19.2 µM (inactive),23.6 µM (inactive),,18.8 µM (inactive)
